Assay results: patent US6977262B2, “Dihydropyrazolopyridine compounds and pharmaceutical use thereof” (Mitsubishi Pharma Corporation, priority 2001, dated 2005)

Row | SMILES | melting point
1 | CCCC1=C(C(=O)OCC)C(c2cccc(C#N)c2Cl)c2c[nH]nc2N1 (centres unmarked) [Example 180, Ethyl 4-(2-chloro-3-cyanophenyl)-4,7-dihydro-6-propyl-2H-pyrazolo[3,4-b]pyridine-5-carboxylate] | 213 to 215 °C
2 | CCCC1=C(C(=O)OCC)C(c2cccc(Br)c2Br)c2c[nH]nc2N1 (centres unmarked) [Example 181, Ethyl 4-(2,3-dibromophenyl)-4,7-dihydro-6-propyl-2H-pyrazolo[3,4-b]pyridine-5-carboxylate] | 180 to 183 °C (dec.)
3 | CCCC1=C(C(=O)OCC)C(c2cccc(C#N)c2Br)c2c[nH]nc2N1 (centres unmarked) [Example 183, Ethyl 4-(2-bromo-3-cyanophenyl)-4,7-dihydro-6-propyl-2H-pyrazolo[3,4-b]pyridine-5-carboxylate] | 210 to 212 °C (dec.)
4 | CCCC1=C(C#N)C(c2cccc(C#N)c2Cl)c2c[nH]nc2N1 (centres unmarked) [Example 184, 4-(2-Chloro-3-cyanophenyl)-5-cyano-4,7-dihydro-6-propyl-2H-pyrazolo[3,4-b]pyridine] | > 250 °C
5 | CCCC1=C(C(=O)OCC)C(c2cccc(C)c2OC)c2c[nH]nc2N1 (centres unmarked) [Example 190, Ethyl 4,7-dihydro-4-(2-methoxy-3-methylphenyl)-6-propyl-2H-pyrazolo[3,4-b]pyridine-5-carboxylate] | 220 to 222 °C
6 | CCCC1=C(C(=O)OCC)C(c2cccc(C#N)c2OC)c2c[nH]nc2N1 (centres unmarked) [Example 191, Ethyl 4-(3-cyano-2-methoxyphenyl)-4,7-dihydro-6-propyl-2H-pyrazolo[3,4-b]pyridine-5-carboxylate] | 220 to 222 °C
7 | CCC1=C(C#N)C(c2ccccc2[N+](=O)[O-])c2c[nH]nc2N1 (centres unmarked) [Example 192, 5-Cyano-6-ethyl-4,7-dihydro-4-(2-nitrophenyl)-2H-pyrazolo[3,4-b]pyridine] | 228 to 230 °C (dec.)
8 | CCC1=C(C#N)C(c2cccc(Cl)c2Cl)c2c[nH]nc2N1 (centres unmarked) [Example 193, 5-Cyano-4-(2,3-dichlorophenyl)-6-ethyl-4,7-dihydro-2H-pyrazolo[3,4-b]pyridine] | > 300 °C
9 | CC(C)C1=C(C#N)C(c2ccccc2Cl)c2c[nH]nc2N1 (centres unmarked) [Example 203, 4-(2-Chlorophenyl)-5-cyano-4,7-dihydro-6-isopropyl-2H-pyrazolo[3,4-b]pyridine] | > 250 °C
10 | CCCC1=C(C(=O)OCC)C(c2ccccc2Cl)c2cnn(C(=O)OC(C)(C)C)c2N1 (centres unmarked) [Example 204, Ethyl 1-tert-butoxycarbonyl-4-(2-chlorophenyl)-4,7-dihydro-6-propyl-1H-pyrazolo[3,4-b]pyridine-5-carboxylate] | 112 to 116 °C
11 | CCCC1=C(C(=O)OCC)C(c2ccccc2Cl)c2cn(C(=O)OC(C)(C)C)nc2N1 (centres unmarked) [Example 205, Ethyl 2-tert-butoxycarbonyl-4-(2-chlorophenyl)-4,7-dihydro-6-propyl-2H-pyrazolo[3,4-b]pyridine-5-carboxylate] | 144 to 147 °C
12 | CCCC1=C(C(=O)OCC)C(c2ccccc2Cl)c2cn(C(=O)OC)nc2N1 (centres unmarked) [Example 207, Ethyl 4-(2-chlorophenyl)-4,7-dihydro-2-methoxycarbonyl-6-propyl-2H-pyrazolo[3,4-b]pyridine-5-carboxylate] | 141 to 143 °C
13 | CCCC1=C(C(=O)OCC)C(c2ccccc2Cl)c2cnn(C(=O)OCc3ccccc3)c2N1 (centres unmarked) [Example 208, Ethyl 1-benzyloxycarbonyl-4-(2-chlorophenyl)-4,7-dihydro-6-propyl-1H-pyrazolo[3,4-b]pyridine-5-carboxylate] | 80 °C
14 | CCCC1=C(C(=O)OCC)C(c2ccccc2Cl)c2cnn(C(=O)c3ccccc3)c2N1 (centres unmarked) [Example 210, Ethyl 1-benzoyl-4-(2-chlorophenyl)-4,7-dihydro-6-propyl-1H-pyrazolo[3,4-b]pyridine-5-carboxylate] | 115 °C
15 | CCCC1=C(C(=O)OCC)C(c2ccccc2Cl)c2cn(C(=O)c3ccccc3)nc2N1 (centres unmarked) [Example 211, Ethyl 2-benzoyl-4-(2-chlorophenyl)-4,7-dihydro-6-propyl-2H-pyrazolo[3,4-b]pyridine-5-carboxylate] | 119 to 121 °C
16 | CCCC1=C(C(=O)OCC)C(c2ccccc2Cl)c2cn(C(=O)Oc3ccccc3)nc2N1 (centres unmarked) [Example 218, Ethyl 4-(2-chlorophenyl)-4,7-dihydro-2-phenoxycarbonyl-6-propyl-2H-pyrazolo[3,4-b]pyridine-5-carboxylate] | 156 to 157 °C
17 | CCCOC(=O)n1ncc2c1NC(CCC)=C(C(=O)OCC)C2c1ccccc1Cl (centres unmarked) [Example 221, Ethyl 4-(2-chlorophenyl)-4,7-dihydro-1-propoxycarbonyl-6-propyl-1H-pyrazolo[3,4-b]pyridine-5-carboxylate] | 66 to 68 °C
18 | CCCC1=C(C(=O)OCC)C(c2ccccc2Cl)c2cnn(C(=O)C=Cc3ccccc3)c2N1 (centres unmarked) [Example 228, Ethyl 4-(2-chlorophenyl)-1-cinnamoyl-4,7-dihydro-6-propyl-1H-pyrazolo[3,4-b]pyridine-5-carboxylate] | 131 to 134 °C
19 | CCCC1=C(C(=O)OCC)C(c2ccccc2Cl)c2cn(C)nc2N1 (centres unmarked) [Example 231, Ethyl 4-(2-chlorophenyl)-4,7-dihydro-2-methyl-6-propyl-2H-pyrazolo[3,4-b]pyridine-5-carboxylate] | 150 to 151 °C
20 | CCCC1=C(C(=O)OCC)C(c2cccc(Cl)c2)c2c[nH]nc2N1 (centres unmarked) [Example 234, Ethyl 4-(3-chlorophenyl)-4,7-dihydro-6-propyl-2H-pyrazolo[3,4-b]pyridine-5-carboxylate] | 140 to 143 °C

The next lines start with the values.

Row | melting point | SMILES
21 | 212 °C | CC1=C(C#N)C(c2cccc3nonc23)c2c[nH]nc2N1 (centres unmarked) [Example 176, 4-(2,1,3-Benzoxadiazol-4-yl)-5-cyano-4,7-dihydro-6-methyl-2H-pyrazolo[3,4-b]pyridine]
22 | 200 °C | CCCCC1=C(C#N)C(c2cccc3nonc23)c2c[nH]nc2N1 (centres unmarked) [Example 177, 4-(2,1,3-Benzoxadiazol-4-yl)-6-butyl-5-cyano-4,7-dihydro-2H-pyrazolo[3,4-b]pyridine]
23 | 198 to 200 °C | CCCC1=C(C(=O)OCC)C(c2cccc(C)c2Cl)c2c[nH]nc2N1 (centres unmarked) [Example 178, Ethyl 4-(2-chloro-3-methylphenyl)-4,7-dihydro-6-propyl-2H-pyrazolo[3,4-b]pyridine-5-carboxylate]
24 | 234 to 235 °C | CCCC1=C(C#N)C(c2cccc([N+](=O)[O-])c2Cl)c2c[nH]nc2N1 (centres unmarked) [Example 185, 4-(2-Chloro-3-nitrophenyl)-5-cyano-4,7-dihydro-6-propyl-2H-pyrazolo[3,4-b]pyridine]
25 | 250 to 255 °C (dec.) | CCCC1=C(C#N)C(c2cccc([N+](=O)[O-])c2Br)c2c[nH]nc2N1 (centres unmarked) [Example 189, 4-(2-Bromo-3-nitrophenyl)-5-cyano-4,7-dihydro-6-propyl-2H-pyrazolo[3,4-b]pyridine]
26 | 230 to 232 °C | CCC1=C(C#N)C(c2ccccc2OC)c2c[nH]nc2N1 (centres unmarked) [Example 194, 5-Cyano-6-ethyl-4,7-dihydro-4-(2-methoxyphenyl)-2H-pyrazolo[3,4-b]pyridine]
27 | > 300 °C | CCC1=C(C#N)C(c2cccc(C#N)c2Cl)c2c[nH]nc2N1 (centres unmarked) [Example 195, 4-(2-Chloro-3-cyanophenyl)-5-cyano-6-ethyl-4,7-dihydro-2H-pyrazolo[3,4-b]pyridine]
28 | > 300 °C | CCC1=C(C#N)C(c2ccccc2Cl)c2c[nH]nc2N1 (centres unmarked) [Example 197, 4-(2-Chlorophenyl)-5-cyano-6-ethyl-4,7-dihydro-2H-pyrazolo[3,4-b]pyridine]
29 | > 300 °C | CCC1=C(C#N)C(c2cccc(C#N)c2Br)c2c[nH]nc2N1 (centres unmarked) [Example 198, 4-(2-Bromo-3-cyanophenyl)-5-cyano-6-ethyl-4,7-dihydro-2H-pyrazolo[3,4-b]pyridine]
30 | 250 to 253 °C (dec.) | CCC1=C(C#N)C(c2ccccc2Br)c2c[nH]nc2N1 (centres unmarked) [Example 199, 4-(2-Bromophenyl)-5-cyano-6-ethyl-4,7-dihydro-2H-pyrazolo[3,4-b]pyridine]
31 | > 250 °C | CCCC1=C(C#N)C(c2cccc(C(F)(F)F)c2Cl)c2c[nH]nc2N1 (centres unmarked) [Example 201, 4-(2-Chloro-3-trifluoromethylphenyl)-5-cyano-4,7-dihydro-6-propyl-2H-pyrazolo[3,4-b]pyridine]
32 | > 250 °C | N#CC1=C(c2ccccc2)Nc2n[nH]cc2C1c1cccc(C(F)(F)F)c1Cl (centres unmarked) [Example 202, 4-(2-Chloro-3-trifluoromethylphenyl)-5-cyano-4,7-dihydro-6-phenyl-2H-pyrazolo[3,4-b]pyridine]
33 | 145 to 147 °C | CCCC1=C(C(=O)OCC)C(c2ccccc2Cl)c2cn(C(=O)Nc3ccccc3)nc2N1 (centres unmarked) [Example 215, Ethyl 4-(2-chlorophenyl)-4,7-dihydro-2-phenylcarbamoyl-6-propyl-2H-pyrazolo[3,4-b]pyridine-5-carboxylate]
34 | 88 to 89 °C | CCCC1=C(C(=O)OCC)C(c2ccccc2Cl)c2cnn(C(=O)OCC)c2N1 (centres unmarked) [Example 219, Ethyl 4-(2-chlorophenyl)-1-ethoxycarbonyl-4,7-dihydro-6-propyl-1H-pyrazolo[3,4-b]pyridine-5-carboxylate]
35 | 59 °C | CCCOC(=O)n1cc2c(n1)NC(CCC)=C(C(=O)OCC)C2c1ccccc1Cl (centres unmarked) [Example 222, Ethyl 4-(2-chlorophenyl)-4,7-dihydro-2-propoxycarbonyl-6-propyl-2H-pyrazolo[3,4-b]pyridine-5-carboxylate]
36 | 75 to 76 °C | CCCC1=C(C(=O)OCC)C(c2ccccc2Cl)c2cnn(C(C)=O)c2N1 (centres unmarked) [Example 224, Ethyl 1-acetyl-4-(2-chlorophenyl)-4,7-dihydro-6-propyl-1H-pyrazolo[3,4-b]pyridine-5-carboxylate]
37 | 164 to 165 °C | CCCC1=C(C(=O)OCC)C(c2ccccc2Cl)c2c(n[nH]c2C)N1 (centres unmarked) [Example 230, Ethyl 4-(2-chlorophenyl)-4,7-dihydro-3-methyl-6-propyl-2H-pyrazolo[3,4-b]pyridine-5-carboxylate]
38 | 159 to 161 °C | CCCC1=C(C(=O)OCC)C(c2ccc(Cl)cc2)c2c[nH]nc2N1 (centres unmarked) [Example 235, Ethyl 4-(4-chlorophenyl)-4,7-dihydro-6-propyl-2H-pyrazolo[3,4-b]pyridine-5-carboxylate]
